Reference: patent US20250263799A1, “METHODS OF TREATING CANCER USING REPLICATION STRESS MODULATORS” (The Institute of Cancer Research: Royal Cancer Hospital, priority 2022, published 2025)

What was measured:
[1] = tested on: RPE1 cells engineered with dox inducible expression of HORMAD1; experiment: Colony formation (surviving fraction) with ART558 in RPE1 cells with dox inducible expression of HORMAD1; type: cell-based, human
Experimental: (§1) RPE1 (FIGS. 16-17, A) or SUM159 (FIGS. 16-17, B) cells engineered with dox inducible expression of HORMAD1 were seeded at colony forming density in the presence or absence of dox and treated with the indicated doses of ART558. Colonies were counted and surviving fractions for each condition were calculated.

[2] = tested on: SUM159 cells engineered with dox inducible expression of HORMAD1; experiment: Colony formation (surviving fraction) with ART558 in SUM159 cells with dox inducible expression of HORMAD1; type: cell-based, human
Experimental: as §1

[3] = tested on: SUM159 cells with dox-inducible expression of HORMAD1; experiment: LY2606368 sensitivity in SUM159 cells with dox-inducible HORMAD1 (FIG. 18D); type: cell-based, human; details: +DOX vs -DOX
[4] = tested on: Breast cancer cell lines characterized as HORMAD1 negative and positive; details: data from depmap.org, FIG. 18C; cited from earlier work
[5] = tested on: HORMAD1 negative RPE-1 cells engineered to have doxycycline inducible expression of HORMAD1; experiment: Novobiocin sensitivity, 10 days, cell viability by cell titre glow; type: cell-based, human
Experimental: HORMAD1 negative RPE-1 cells engineered to have doxycycline inducible expression of HORMAD1 were then assessed for their sensitivity to the POLQ inhibitor Novobiocin. Cells were treated with the indicated doses of Novobiocin for 10 days and cell viability assessed by cell titre glow.

[6] = tested on: SUM149 cells with dox-inducible expression of HORMAD1; experiment: CHK1 inhibitor sensitivity, colony forming density, Cell Titer Glow, surviving fraction; type: cell-based, human; details: FIGS. 18A, B and D

## Cc1cccc(N(C)C(=O)[C@@H]2[C@H](O)CCN2c2nc(C)cc(C(F)(F)F)c2C#N)c1 [ART558]
[1]; RPE1, dox-induced expression of HORMAD1, FIG. 16A
  sensitivity to inhibitor, +DOX vs -DOX: increases sensitivity
[1]; RPE1 cells expressing HORMAD1 (+DOX), 5, 10, and 20 μM ART558
  cell viability (surviving fraction of colonies): significant reduction in cell viability
[1]; RPE1 cells in the absence of the inducer (-DOX), below 20 μM ART558
  cell viability (surviving fraction of colonies): no reduction in cell viability
[2]; SUM159, +DOX vs uninduced
  sensitivity to inhibitor, HORMAD1 expressing vs uninduced controls: significantly increased sensitivity
[2]; SUM159 cells expressing HORMAD1 (+DOX), 10 and 20 μM ART558
  cell viability (surviving fraction of colonies): significant reduction in cell viability

## COc1cccc(OCCCN)c1-c1cc(Nc2cnc(C#N)cn2)n[nH]1 [LY2606368]
[3]
  sensitivity to CHK1 inhibitor upon induction of HORMAD1 expression: increased sensitivity
[4]
  mean area under the curve (AUC), HORMAD1 positive vs HORMAD1 negative group: lower mean AUC

## CO[C@@H]1[C@@H](OC(N)=O)[C@@H](O)[C@H](Oc2ccc3c(O)c(NC(=O)c4ccc(O)c(CC=C(C)C)c4)c(=O)oc3c2C)OC1(C)C [Novobiocin]
[5]; +DOX vs uninduced, difference dose-dependent
  sensitivity to inhibitor, HORMAD1 expressing vs uninduced controls: significantly increased sensitivity
[5]; Novobiocin at concentrations above 50 μM, 10 days
  colony survival: significant and dose-dependent reduction in colony survival

## Cn1cc(-c2[nH]c3cc(NC(=O)[C@H](N)C4CCCCC4)cc4c3c2C=NNC4=O)cn1 [PF47736]
[6]
  sensitivity to CHK1 inhibitor, HORMAD1 expressing vs uninduced controls: significantly increased sensitivity

## C[C@H](CN(C)C)Oc1nc(Nc2cc3cccc(Cl)c3cn2)cnc1C#N [SAR020106]
[6]
  sensitivity to CHK1 inhibitor, HORMAD1 expressing vs uninduced controls: significantly increased sensitivity
